US6399570B1, “Antimicrobial/endotoxin neutralizing polypeptide” (priority 1999, dated 2002)

Test system: RAW 264.7 cells
Experiment: Endotoxin induced TNF-α secretion by RAW 264.7 cells
Format: cell-based, murine
Method: Suppression of endotoxin-induced TNF-α secretion by a macrophage cell line RAW 264.7 was also measured (Kelly et al., Infect. Immun. 59: 4491-6 (1991)). RAW 264.7 cells secret TNF-α upon exposure to endotoxin (M. R. Ruff and G. E. Gifford, Lymphokines 2: 235-272 (1981)). […] Similar to the results of the LAL assay, the potency of LF-33 varied depending on the type of endotoxin. The LF-33 concentration needed to suppress 50% TNF-α secretion induced by endotoxin (10 ng/ml) was approximately 0.01 μM for E. coli LPS and lipid A, 0.1 μM for LPS from P. aeruginosa, and 0.5 μM for LPS from S. abortus equi and N. meningitidis.
Endotoxin induced TNF-α secretion by RAW 264.7 cells. The murine macrophage cell line RAW 264.7 was obtained from the American Type Culture Collection (ATCC, Rockville, Md.) and maintained as described previously (Jeremy, B., Immunol. Today. 16: 417-419 (1995)). The concentration of endotoxin in all buffers and media was controlled to below 0.1 EU/ml. The following protocol was essentially described before and used here with minor modifications (Kelly et al., Infect. Immun. 59: 4491-6 (1991)). Each well of a 96-well tissue culture plate was seeded with 150 μl RAW 264.7 cells at 10^6 cells per ml DMEM (Life Technologies, Gaithersburg, Md.) supplemented with 10% heat-treated fetal bovine serum (Life Technologies), 25 mM HEPES (N-2-hydroxyethylpiperazine-N′-2-ethanesulfonic acid; pH 7.3), penicillin (60 U/ml) and streptomycin (60 μg/ml). After overnight incubation at 37° C. in a 6% CO2 incubator, the medium was aspirated and cells washed with 3-changes of endotoxin-free Hank's balanced salt solution (HBSS, Life Technologies) supplemented with 25 mM HEPES (pH 7.3). Control endotoxin (10 ng/ml) and test materials were prepared in HBSS-HEPES. After incubation in a 37° C. water bath for 1 h, 0.2 ml of these solutions was added in triplicate to each well and incubated at 37° C. for 6 h. The supernatants were then collected and stored at −70° C. before the measurement of […] activity. Controls included HBSS-HEPES and test materials in the absence of endotoxin. TNF-α activity of the medium and test materials was below […]. The human serum used in some experiments was a pool from normal donors.
Determination of TNF activity. TNF-α activity in the culture supernatant was determined based on its cytotoxicity for the mouse fibrosarcoma cell line WEHI 164 cells (ATCC). […] The antibody at 1:100 dilution completely eliminated the cytotoxicity in the culture supernatant of the RAW 264.7 cell stimulated by endotoxin and in the mouse sera collected 1 h after intraperitoneal injection of endotoxin.
Briefly, the 96-well tissue culture plates were seeded with 100 μl WEHI164 cells (5×10^4 cells) in RPMI-1640 medium (Life Technologies) containing 10% heat-treated fetal bovine serum, 25 mM HEPES (pH 7.3), penicillin (60 U/ml), streptomycin (60 μg/ml), and actinomycin D (4 μg/ml). After a 2-h incubation at 37° C. in a 6% CO2 incubator, 10 μl twofold serially diluted samples (culture supernatants) or standards (murine recombinant TNF-α, Genzyme) was added to each well, and incubated for 20 h. Cell viability was then determined by the addition of 10 μl MTT (Thiazolyl blue, Sigma) stock solution (5 mg/ml in saline) to each well, and the incubation was allowed to continue for 6 h. 180 μl of acid-isopropanol (containing 40 mM HCl) was added to dissolve the generated dark blue crystals. The plate was read at 570 nm with a reference of 630 nm in a microplate reader. The amount of TNF-α that led to 50% killing of the seeded cells was defined as one unit, equivalent to approximately 15 pg of recombinant TNF-α under the present condition. A standard curve was obtained by incubating known amounts of the recombinant TNF-α with the WEHI cells.

Question: Which results are given for CSCC[C@H](NC(=O)[C@H](CC(N)=O)NC(=O)[C@H](CCCNC(=N)N)NC(=O)[C@H](CCC(N)=O)NC(=O)[C@H](Cc1c[nH]c2ccccc12)NC(=O)[C@H](CCC(N)=O)NC(=O)[C@H](Cc1ccccc1)NC(=O)[C@H](CS)NC(=O)[C@H](CCCCN)NC(=O)[C@@H](NC(=O)[C@H](C)NC(=O)[C@H](CCC(=O)O)NC(=O)[C@@H]1CCCN1C(=O)[C@H](CCC(N)=O)NC(=O)[C@H](CO)NC(=O)[C@@H](NC(=O)[C@H](C)NC(=O)[C@H](CS)NC(=O)[C@H](Cc1c[nH]c2ccccc12)NC(=O)[C@H](CCC(N)=O)NC(=O)[C@@H](N)C(C)C)C(C)C)[C@@H](C)O)C(=O)N[C@@H](CCCNC(=N)N)C(=O)N[C@@H](CCCCN)C(=O)N[C@H](C(=O)N[C@@H](CCCNC(=N)N)C(=O)NCC(=O)N1CCC[C@H]1C(=O)O)C(C)C [LF-27]?
Answer: TNF-α secretion induced by Lipid A (agent 3 μM, endotoxin 10 ng/ml, control 2,386): 3,182 +/− 412 pg/ml; TNF-α secretion induced by S. abortus LPS (agent 3 μM, endotoxin 10 ng/ml, control 3,969): 3,985 +/− 497 pg/ml; TNF-α secretion induced by P. aer. LPS (agent 3 μM, endotoxin 10 ng/ml, control 4,813): 4,633 +/− 603 pg/ml; TNF-α secretion induced by E. coli LPS (agent 3 μM, endotoxin 10 ng/ml, control 4,928): 4,912 +/− 588 pg/ml; TNF-α secretion induced by N. min. LPS (agent 3 μM, endotoxin 10 ng/ml, control 5,658): 7,306 +/− 1008 pg/ml; effect on endotoxin-induced TNF-α secretion (equal molar concentration of LF-27 or 10% human serum): no effect
